Experimental findings from patent US8263606B2 (Xenon Pharmaceuticals Inc., priority 2008, dated 2012) are described below.

Each structure is given as a SMILES string. Some results are limits rather than exact numbers.

One data set has as its system sodium channel. The data set is described as follows: Guanidine influx assay (14C-guanidine radiotracer flux, in vitro). The data set is classed as cell-based, human or rat. To be noted: guanidine influx assay using a known cell line that expresses a sodium channel; activity level class. An excerpt: This example describes an in vitro assay for testing and profiling test agents against human or rat sodium channels stably expressed in cells of either an endogenous or recombinant origin. The assay is also useful for determining the IC50 of a sodium channel blocking compound. The assay is based on the guanidine flux assay described by Reddy, N. L., et al., J. Med. Chem. (1998), 41(17):3298-302.
The guanidine influx assay is a radiotracer flux assay used to determine ion flux activity of sodium channels in a high-throughput microplate-based format. The assay uses ^14C-guanidine hydrochloride in combination with various known sodium channel modulators, to assay the potency of test agents. Potency is determined by an IC50 calculation. Selectivity is determined by comparing potency of the compound for the channel of interest to its potency against other sodium channels (also called ‘selectivity profiling’).
Each of the test agents is assayed against cells that express the channels of interest. Voltage gated sodium channels are either TTX sensitive or insensitive. This property is useful when evaluating the activities of a channel of interest when it resides in a mixed population with other sodium channels. The following Table 1 summarizes cell lines useful in screening for a certain channel activity in the presence or absence of TTX.
It is also possible to employ recombinant cells expressing these sodium channels. Cloning and propagation of recombinant cells are known to those skilled in the art (see, for example, Klugbauer, N, et al., EMBO J. (1995), 14(6):1084-90; and Lossin, C., et al., Neuron (2002), 34, pp. 877-884).
Cells expressing the channel of interest are grown according to the supplier or in the case of a recombinant cell in the presence of selective growth media such as G418 (Gibco/Invitrogen). The cells are disassociated from the culture dishes with an enzymatic solution (Ix) Trypsin/EDTA (Gibco/Invitrogen) and analyzed for density and viability using haemocytometer (Neubauer). Disassociated cells are washed and resuspended in their culture media then plated into Scintiplates (Beckman Coulter Inc.) (approximately 100,000 cells/well) and incubated at 37° C./5% CO2 for 20-24 hours. After an extensive wash with Low sodium HEPES-buffered saline solution (LNHBSS) (150 mM Choline Chloride, […] (Sigma), 1 mM Calcium Chloride, 5 mM Potassium Chloride, 1 mM Magnesium Chloride, 10 mM Glucose) agents diluted with LNHBSS are added to each well. (Varying concentrations of test agent may be used). The activation/radiolabel mixture contains aconitine (Sigma) to increase the percentage of time that the sodium channels are open, and ^14C-guanidine hydrochloride (ARC) to measure flux through the voltage-gated sodium channels.
After loading the cells with test agent and activation/radiolabel mixture, the Scintiplates are incubated at ambient temperature. Following the incubation, the Scintplates are extensively washed with LNHBSS supplemented with guanidine (Sigma). The Scintiplates are dried and then counted using a Wallac MicroBeta TriLux (Perkin-Elmer Life Sciences). The ability of the test agent to block sodium channel activity is determined by comparing the amount of ^14C-guanidine present inside the cells expressing the different sodium channels.
The IC50 value of a test agent for a specific sodium channel may be determined using the above general method. […] Typically the mid-point concentration of test agent is set at 1 μM, and sequential concentrations of half dilutions greater or smaller are applied (e.g. 0.5 μM; 5 μM and 0.25 μM; 10 μM and 0.125 μM; 20 μM etc.). The IC50 curve is calculated using the 4 Parameter Logistic Model or Sigmoidal Dose-Response Model formula (fit=(A+((B−A)/(1+((C/x)^D)))).
The fold selectivity, factor of selectivity or multiple of selectivity, is calculated by dividing the IC50 value of the test sodium channel by the reference sodium channel, for example, Nav1.5. […]

For another data set, the target named is CYP3A4 (Homo sapiens, UniProt P08684). Put plainly: Cytochrome P450 (CYP450) Inhibition Assay, CYP3A4 (Vivid fluorescence, BOMCC substrate). Particulars: human, P450 Baculosomes (recombinant CYP3A4), probe BOMCC (Vivid substrate).
CYP3A4, sequence (P08684 whole entry): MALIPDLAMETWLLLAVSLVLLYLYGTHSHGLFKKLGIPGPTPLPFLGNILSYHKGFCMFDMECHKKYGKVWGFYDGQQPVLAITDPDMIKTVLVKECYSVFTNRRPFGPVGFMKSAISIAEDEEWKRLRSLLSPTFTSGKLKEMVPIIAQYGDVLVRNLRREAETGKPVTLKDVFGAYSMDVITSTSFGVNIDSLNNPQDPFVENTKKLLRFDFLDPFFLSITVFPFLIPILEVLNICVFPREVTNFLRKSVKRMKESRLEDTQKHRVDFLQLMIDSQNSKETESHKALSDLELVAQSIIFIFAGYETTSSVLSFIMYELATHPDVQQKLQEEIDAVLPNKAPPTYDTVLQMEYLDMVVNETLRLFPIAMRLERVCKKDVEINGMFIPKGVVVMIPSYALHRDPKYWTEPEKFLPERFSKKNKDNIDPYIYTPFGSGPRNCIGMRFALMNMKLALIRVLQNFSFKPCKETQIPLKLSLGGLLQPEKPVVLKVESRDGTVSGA

As for `Cn1c(CN2C(=O)C3(COc4cc5c(cc43)CCO5)c3ccccc32)cnc1Cl` (stereo not drawn) [Example 4.2, 1′-[(2-chloro-1-methyl-1H-imidazol-5-yl)methyl]-5,6-dihydrospiro[benzo[1,2-b:5,4-b′]difuran-3,3′-indol]-2′(1′H)-one], the IC50 – broadly, the concentration that gives 50% inhibition – with sodium channel is 1 to 100 nM. Besides, the inhibition (commonly how much of the control response was suppressed) at 10 µM at CYP3A4 was more than 50%.

As to `CC(C)CCN1C(=O)C2(COc3cc4c(cc32)CCO4)c2ccccc21` (stereo not drawn) [Example 4.4, 1′-(3-methylbutyl)-5,6-dihydrospiro[benzo[1,2-b:5,4-b′]difuran-3,3′-indol]-2′(1′H)-one], the IC50 in the data set with sodium channel was 1 to 100 nM. For the same molecule, on CYP3A4, the inhibition at 10 µM is more than 50%.

Regarding `O=C1N(C[C@@H]2CCCO2)c2ccccc2C12COc1cc3c(cc12)CCO3` (stereo partly drawn) [Example 4.5, 1′-[(2S)-tetrahydrofuran-2-ylmethyl]-5,6-dihydrospiro[benzo[1,2-b:5,4-b′]difuran-3,3′-indol]-2′(1′H)-one], the IC50 in the data set on sodium channel was in the range of 1 to 100 nM. In addition, on CYP3A4, the inhibition at 10 µM was less than 50%.

For `COC(=O)c1ccc(CN2C(=O)C3(COc4cc5c(cc43)CCO5)c3ccccc32)o1` (stereo not drawn) [Example 4.7, methyl 5-[(2′-oxo-5,6-dihydrospiro[benzo[1,2-b:5,4-b′]difuran-3,3′-indol]-1′(2′H)-yl)methyl]furan-2-carboxylate], the IC50 in the data set with sodium channel lay within 1 to 100 nM. The inhibition at 10 µM on CYP3A4 is more than 50%.

As for `Cn1cc(CN2C(=O)C3(COc4cc5c(cc43)CCO5)c3ccccc32)c(C(F)(F)F)n1` (stereo not drawn) [Example 4.9, 1′-{[1-methyl-3-(trifluoromethyl)-1H-pyrazol-4-yl]methyl}-5,6-dihydrospiro[benzo[1,2-b:5,4-b′]difuran-3,3′-indol]-2′(1′H)-one], the half-inhibitory concentration (IC50) in the data set on sodium channel was in the range of 100 to 1000 nM. On CYP3A4, the inhibition at 10 µM is more than 50%.

In the case of `COC(=O)c1coc(CN2C(=O)C3(COc4cc5c(cc43)CCO5)c3ccccc32)n1` (stereo not drawn) [Example 4.11, methyl 2-[(2′-oxo-5,6-dihydrospiro[benzo[1,2-b:5,4-b′]difuran-3,3′-indol]-1′(2′H)-yl)methyl]-1,3-oxazole-4-carboxylate], the IC50 with sodium channel was in the range of 1 to 100 nM. Besides, the inhibition at 10 µM on CYP3A4 was less than 50%.

`O=C1N(Cc2ccccc2F)c2ccccc2C12COc1cc3c(cc12)CCO3` (stereo not drawn) [Example 4.12, 1′-(2-fluorobenzyl)-5,6-dihydrospiro[benzo[1,2-b:5,4-b′]difuran-3,3′-indol]-2′(1′H)-one]: the IC50 in the data set on sodium channel was in the range of 1 to 100 nM. The inhibition at 10 µM on CYP3A4 is less than 50%.

Regarding `O=C1N(Cc2ccc(F)cc2)c2ccccc2C12COc1cc3c(cc12)CCO3` (stereo not drawn) [Example 4.13, 1′-(4-fluorobenzyl)-5,6-dihydrospiro[benzo[1,2-b:5,4-b′]difuran-3,3′-indol]-2′(1′H)-one], the IC50 in the data set on sodium channel lay in the range of 1 to 100 nM. Also, the inhibition at 10 µM on CYP3A4 is more than 50%.

Regarding `O=C1N(Cc2ccccc2)c2ccccc2C12COc1cc3c(cc12)CCO3` (stereo not drawn) [Example 4.14, 1′-benzyl-5,6-dihydrospiro[benzo[1,2-b:5,4-b′]difuran-3,3′-indol]-2′(1′H)-one], in the data set with sodium channel, the IC50 lay within 1 to 100 nM. Also, on CYP3A4, the inhibition at 10 µM is more than 50%.

For the molecule `O=C1N(Cc2ccc(-c3ccccc3)cc2)c2ccccc2C12COc1cc3c(cc12)CCO3` (stereo not drawn) [Example 4.15, 1′-(biphenyl-4-ylmethyl)-5,6-dihydrospiro[benzo[1,2-b:5,4-b′]difuran-3,3′-indol]-2′(1′H)-one], the IC50 in the data set on sodium channel was in the range of 1 to 100 nM. In addition, on CYP3A4, the inhibition at 10 µM is less than 50%.

In the case of `O=C1N(Cc2cc(Br)no2)c2ccccc2C12COc1cc3c(cc12)CCO3` (stereo not drawn) [Example 4.17, 1-[(3-bromoisoxazol-5-yl)methyl]-5,6-dihydrospiro[benzo[1,2-b:5,4-b′]difuran-3,3′-indol]-2′(1′H)-one], in the data set with sodium channel, the IC50 lay within 1 to 100 nM. Moreover, the inhibition at 10 µM on CYP3A4 was more than 50%.

Consider `O=C1N(Cc2ccc(Br)o2)c2ccccc2C12COc1cc3c(cc12)CCO3` (stereo not drawn) [Example 4.18, 1′-[(5-bromofuran-2-yl)methyl]-5,6-dihydrospiro[benzo[1,2-b:5,4-b′]difuran-3,3′-indol]-2′(1′H)-one], for which the IC50 in the data set with sodium channel lay within 1 to 100 nM. On CYP3A4, the inhibition at 10 µM was more than 50%.

`CCn1cncc1CN1C(=O)C2(COc3cc4c(cc32)CCO4)c2ccccc21` (stereo not drawn) [Example 4.21, 1′-[(1-ethyl-1H-imidazol-5-yl)methyl]-5,6-dihydrospiro[benzo[1,2-b:5,4-b′]difuran-3,3′-indol]-2′(1′H)-one]: in the data set on sodium channel, the IC50 is 100 to 1000 nM. In addition, on CYP3A4, the inhibition at 10 µM was more than 50%.

Take `COc1cc2c(cc1C)C1(CO2)C(=O)N(Cc2ccccn2)c2ccccc21` (stereo not drawn) [Example 4.62, 6-methoxy-5-methyl-1′-(pyridin-2-ylmethyl)spiro[1-benzofuran-3,3′-indol]-2′(1′H)-one]: the IC50 in the data set with sodium channel is 1000 to 10000 nM. At CYP3A4, the inhibition at 10 µM is more than 50%.

Consider `O=C1N(Cc2ccc(C(F)(F)F)o2)c2ccccc2C12CCOc1cc3c(cc12)CCO3` (stereo not drawn) [Example 4.70, 1-{[5-(trifluoromethyl)furan-2-yl]methyl}-2,3,6,7-tetrahydrospiro[furo[3,2-g]chromene-5,3′-indol]-2′(1′H)-one], for which, in the data set on sodium channel, the IC50 was in the range of 1000 to 10000 nM. Further, at CYP3A4, the inhibition at 10 µM is more than 50%.

Take `CC(C)(C)OC(=O)NC(CCN1C(=O)C2(COc3cc4c(cc32)OCO4)c2ccccc21)C1CC1` (stereo not drawn) [Example 4.78, tert-butyl [1-cyclopropyl-3-(2′-oxospiro[furo[2,3-f][1,3]benzodioxole-7,3′-indol]-1′(2′H)-yl)propyl]carbamate]: in the data set with sodium channel, the IC50 was in the range of 1 to 100 nM. For the same molecule, at CYP3A4, the inhibition at 10 µM is more than 50%.

Consider `O=C1N(Cc2ccc(C(F)(F)F)o2)c2cccc(Cl)c2C12COc1cc3c(cc12)OCO3` (stereo not drawn) [Example 4.90, 4′-chloro-1′-{[5-(trifluoromethyl)-2-furyl]methyl}spiro[furo[2,3-f][1,3]benzodioxole-7,3′-indol]-2′(1′H)-one], for which the IC50 with sodium channel is 1 to 100 nM. In addition, the inhibition at 10 µM at CYP3A4 was more than 50%.

Take `O=C1N(Cc2ccc(C(F)(F)F)nc2)c2ccccc2C12COc1cc3c(cc12)OCCO3` (stereo not drawn) [Example 4.98, 1-{[6-(trifluoromethyl)pyridin-3-yl]methyl}-2,3-dihydrospiro[furo[2,3-g][1,4]benzodioxine-8,3′-indol]-2′(1′H)-one]: the IC50 in the data set on sodium channel was in the range of 1 to 100 nM. Also, at CYP3A4, the inhibition at 10 µM is more than 50%.

For the molecule `CCC(=O)CN1C(=O)[C@@]2(COc3cc4c(cc32)OCCO4)c2ccccc21` [Example 4.109, (S)-1′-(2-oxobutyl)-3,7-dihydro-2H-spiro[benzofuro[5,6-b][1,4]dioxine-8,3′-indolin]-2′-one], in the data set on sodium channel, the IC50 was 1 to 100 nM. Besides, the inhibition at 10 µM on CYP3A4 was less than 50%.

Regarding `N#Cc1ccc2c(c1)OCC21C(=O)N(Cc2ccc3c(c2)OCCO3)c2ccccc21` (stereo not drawn) [Example 4.111, 1′-(2,3-dihydro-1,4-benzodioxin-6-ylmethyl)-2′-oxo-1′,2′-dihydrospiro[1-benzofuran-3,3′-indole]-6-carbonitrile], in the data set on sodium channel, the IC50 is 100 to 1000 nM. Besides, the inhibition at 10 µM on CYP3A4 is less than 50%.

Regarding `O=C1N(Cc2ncccc2Cl)c2ccccc2C12COc1cc3c(cc12)OCCO3` (stereo not drawn) [Example 4.112, 1-[(3-chloropyridin-2-yl)methyl]-2,3-dihydrospiro[furo[2,3-g][1,4]benzodioxine-8,3′-indol]-2′(1′H)-one], in the data set on sodium channel, the IC50 was 1 to 100 nM. On CYP3A4, the inhibition at 10 µM is more than 50%.
